Source: ChEMBL document CHEMBL1201862, “PubChem BioAssay data set” (2004)
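Growth conditions: 96-well plates. Treatment: test compound, 48 hours, 5 concentrations. Analysis: linear interpolation between bracketing concentrations; unreached endpoints set to highest concentration. The concentration for 50% growth inhibition is given as GI50.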 Activity calls are given as the source filed them. Cut-off read from the data, not from the text of the source: active = GI50 up to about 1.1 µM and inactive = higher.

Assays:
Assay in all cases: NCI tumour cell line growth inhibition, 48 h
DLD-1 = test system: DLD-1
M19-MEL = test system: M19-MEL
DMS-114 = test system: DMS-114
HOP-18 = test system: HOP-18
RXF 631 = test system: RXF 631
LXFL 529 = test system: LXFL 529
DMS-273 = test system: DMS-273
KM-20L2 = test system: KM-20L2
SNB-78 = test system: SNB-78

Measured: GI50

COC1C(O)C(C)OC(OC2C(Oc3cccc4c(O)c5c(=O)oc6ccc(C)c7c(=O)oc(c34)c5c67)OC(C)C3O[C@H](c4ccccc4)OC32)C1O (some centres undefined)
active: DLD-1 45.6 nM | M19-MEL 156 nM | DMS-114 288 nM | HOP-18 1050 nM | RXF 631 31.4 nM | LXFL 529 67.8 nM | DMS-273 20.6 nM | KM-20L2 55 nM | SNB-78 875 nM
